Measured values published in the supplement of paper PMC10307832.

How the values were obtained:
Assay in all cases: relative viability (nuclei count vs DMSO), 5 days (fraction); higher = more cells survive
HCC-15 = test system: HCC-15
Outline: (§1)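 For relative viability, nuclei counts in treated wells were divided by those in vehicle wells. Lung cancer cell lines had been pin-tool dosed in 1536-well plates the day after seeding and cultured for 5 days, then fixed and stained in one step (final 0.05% Triton X-100, 1% formaldehyde, 1 ug/ml Hoechst) and imaged at 4×. Doses were one drug alone or a fixed anchor-drug dose plus five library-drug doses (not always all listed) in √10 steps, and values are duplicate-plate medians.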

NCI-H1975 = test system: NCI-H1975
Outline: as §1

ABC-1 = test system: ABC-1
Outline: as §1

ChaGo-K-1 = test system: ChaGo-K-1
Outline: as §1

NCI-H322M = test system: NCI-H322M
Outline: as §1

CAL-12T = test system: CAL-12T
Outline: as §1

NCI-H3122 = test system: NCI-H3122
Outline: as §1

NCI-H1666 = test system: NCI-H1666
Outline: as §1

NCI-H2126 = test system: NCI-H2126
Outline: as §1

EMC-BAC-2 = test system: EMC-BAC-2
Outline: as §1

NCI-H1755 = test system: NCI-H1755
Outline: as §1

NCI-H358 = test system: NCI-H358
Outline: as §1

NC(=O)Nc1cc(-c2cccc(F)c2)sc1C(=O)N[C@H]1CCCNC1 [AZD7762] + CS(=O)(=O)N1CCN(Cc2cc3nc(-c4cccc5[nH]ncc45)nc(N4CCOCC4)c3s2)CC1 [Pictilisib] (partner 1 µM)
relative viability (HCC-15; first compound 0.01 µM): 0.713
relative viability (HCC-15; first compound 0.03162 µM): 0.792
relative viability (HCC-15; first compound 0.1 µM): 0.875
relative viability (HCC-15; first compound 0.3162 µM): 0.789
relative viability (HCC-15; first compound 1 µM): 0.824
relative viability (NCI-H1975; first compound 0.01 µM): 0.334
relative viability (NCI-H1975; first compound 0.03162 µM): 0.304
relative viability (NCI-H1975; first compound 0.1 µM): 0.288
relative viability (NCI-H1975; first compound 0.3162 µM): 0.235
relative viability (NCI-H1975; first compound 1 µM): 0.194
relative viability (ABC-1; first compound 0.01 µM): 0.72
relative viability (ABC-1; first compound 0.03162 µM): 0.84
relative viability (ABC-1; first compound 0.1 µM): 0.611
relative viability (ABC-1; first compound 0.3162 µM): 0.462
relative viability (ABC-1; first compound 1 µM): 0.245
relative viability (ChaGo-K-1; first compound 0.01 µM): 0.656
relative viability (ChaGo-K-1; first compound 0.03162 µM): 0.815
relative viability (ChaGo-K-1; first compound 0.1 µM): 0.846
relative viability (ChaGo-K-1; first compound 0.3162 µM): 0.675
relative viability (ChaGo-K-1; first compound 1 µM): 0.562
relative viability (NCI-H322M; first compound 0.01 µM): 0.484
relative viability (NCI-H322M; first compound 0.03162 µM): 0.552
relative viability (NCI-H322M; first compound 0.1 µM): 0.502
relative viability (NCI-H322M; first compound 0.3162 µM): 0.5
relative viability (NCI-H322M; first compound 1 µM): 0.426
relative viability (CAL-12T; first compound 0.01 µM): 0.413
relative viability (CAL-12T; first compound 0.03162 µM): 0.521
relative viability (CAL-12T; first compound 0.1 µM): 0.385
relative viability (CAL-12T; first compound 0.3162 µM): 0.405
relative viability (CAL-12T; first compound 1 µM): 0.238
relative viability (NCI-H3122; first compound 0.01 µM): 0.623
relative viability (NCI-H3122; first compound 0.03162 µM): 0.646
relative viability (NCI-H3122; first compound 0.1 µM): 0.638
relative viability (NCI-H3122; first compound 0.3162 µM): 0.333
relative viability (NCI-H3122; first compound 1 µM): 0.332
relative viability (NCI-H1666; first compound 0.01 µM): 0.603
relative viability (NCI-H1666; first compound 0.03162 µM): 0.407
relative viability (NCI-H1666; first compound 0.1 µM): 0.55
relative viability (NCI-H1666; first compound 0.3162 µM): 0.589
relative viability (NCI-H1666; first compound 1 µM): 0.411
relative viability (NCI-H2126; first compound 0.01 µM): 0.491
relative viability (NCI-H2126; first compound 0.03162 µM): 0.482
relative viability (NCI-H2126; first compound 0.1 µM): 0.552
relative viability (NCI-H2126; first compound 0.3162 µM): 0.518
relative viability (NCI-H2126; first compound 1 µM): 0.612
relative viability (EMC-BAC-2; first compound 0.01 µM): 0.581
relative viability (EMC-BAC-2; first compound 0.03162 µM): 0.576
relative viability (EMC-BAC-2; first compound 0.1 µM): 0.574
relative viability (EMC-BAC-2; first compound 0.3162 µM): 0.542
relative viability (EMC-BAC-2; first compound 1 µM): 0.527
relative viability (NCI-H1755; first compound 0.01 µM): 0.471
relative viability (NCI-H1755; first compound 0.03162 µM): 0.469
relative viability (NCI-H1755; first compound 0.1 µM): 0.406
relative viability (NCI-H1755; first compound 0.3162 µM): 0.397
relative viability (NCI-H1755; first compound 1 µM): 0.241
relative viability (NCI-H358; first compound 0.01 µM): 0.363
relative viability (NCI-H358; first compound 0.03162 µM): 0.358
